Experimental data as given in patent US6475509B1, “Covalent conjugates of sodium channel blockers and active compounds” (The University of North Carolina at Chapel Hill, priority 1999, dated 2002).
Counter-ions that a name gives are not always drawn.

How the values were obtained:
[1] = tested on: airway epithelial Na^+ currents; assay: Lumenal drug inhibition of airway epithelial Na+ currents, monolayers in Ussing chambers, with wash-out; format: cell-based, human or dog; settings: for Effect of washout (3) 100% = Baseline: after maximal concentration (10^-4 M), lumenal bath exchanged three times with fresh KBR; for IC50 / Max Inhibition (%) from baseline: mucosal bath, voltage clamp; for IC50: half-log dose addition
Protocol: In the second potency assay, airway epithelial monolayers mounted were in Ussing chambers: The principal assay consisted of tests of lumenal drug inhibition of airway epithelial Na^+ currents. Cells obtained from freshly excised human or dog airways were seeded onto SNAP-well Inserts (CoStar), cultured under air-liquid (ALI) conditions in hormonally defined media. The cells were assayed for Na^+ transport activity while bathed in Krebs bicarbonate Ringer (KBR) in the Ussing chambers under voltage clamp conditions. All test drug additions were to the mucosal bath with half-log dose addition protocols (10^−11 M-[…]). All drugs were made in standard stocks of 10^−2 M drug in DMSO. Eight preparations were typically run in parallel; two preparations/run were routinely used to assay amiloride and benzamil. After the maximal concentration (10^−4 M) was administered, the lumenal bath was exchanged three times with fresh KBR solution, which was defined as the “wash-out” effect. All data from the voltage clamps were collected via a computer interface and analyzed off-line.
Dose-effect relationships for all compounds were considered and analyzed by the Prism 3.0 program. The IC50, maximal effective concentrations, and percent washout were calculated and compared to those of amiloride and benzamil as reference compounds.
The first assay is referred to an assay of reversibility. Empirically, the percent of wash-out correlates with cellular uptake. The relationship is complex because reversibility is also a function of potency. However, reversibility is a quick and simple screen. The compounds that “reverse” best in this assay referenced to benzamil were also the least absorbed in the confocal assay, as described below.

[2] = tested on: cultured airway epithelia; assay: Confocal microscopy assay of drug uptake into cultured airway epithelia; format: cell-based; settings: compound on apical surface of airway cultures, x-z confocal microscopy; relative to amiloride
Protocol: FIG. 2 is an example of a confocal microscopy assay of drug uptake into cultured airway epithelia. In this assay, a compound (10^−4 M) is placed on the airway surface and fluorescence from the cells collected by x-z scanning confocal microscopy. The images shown on the left depict fluorescence in the cells 20 minutes after exposure to amiloride, benzamil and phenamil. Quantitation of the drug uptake is graphically illustrated on the right in terms of units of fluorescence.
The second assay utilizes confocal microscopy of amiloride congener uptake: Virtually all amiloride-like molecules fluoresce in UV range. This property of these molecules was used to directly measure cellular uptake, using a x-z confocal microscope (Leica). […] Serial x-z images were obtained with time and the magnitude of fluorescence accumulating in the cell compartment quantitated and plotted. […] Two compounds from the synthesis series described above (CF-509 and CF-519) appear to fulfil this criterion. Compounds that were equipotent or greater with amiloride were tested for wash-out as described above. However, because wash-out may reflect both potency and cell uptake, the rate of accumulation of fluorescence (indexed to the specific fluorescence/emission spectrum of each compound) in the cell compartment as a function of time was also routinely measured. […]

Cellular uptake (fluorescence accumulating in the cell compartment) [2]	Structure (SMILES)	Effect of washout (3) 100% = Baseline [1] [%]	IC50 [1] [nM]	Max Inhibition (%) from baseline [1] [%]
	Br.Br.N=C(NCc1cccc(CNC(=N)NC(=O)c2nc(Cl)c(N)nc2N)c1)NC(=O)c1nc(Cl)c(N)nc1N [CF-512, 1,3-Bis[(3,5-diamino-6-chloropyrazinovl)guanidino]xylylene Dihydrobromide]	60	197	92
rapid	NC(=NCc1ccccc1)NC(=O)c1nc(Cl)c(N)nc1N [benzamil, 3,5-diamino-6-chloro-N-(benzylaminoaminomethylene) pyrazinecarboxamide, reference compound]			
	N/C(=N\C(=O)c1nc(Cl)c(N)nc1N)NCc1ccc(CN/C(N)=N/C(=O)c2nc(Cl)c(N)nc2N)cc1 [CF-516, 1,4-Bis[(3,5-diamino-6-chloropyrazinoyl)guanidinol]xylylene Dihydrobromide]	65	330	90
